Source: PMC8752738, “A propolis-derived small molecule ameliorates metabolic syndrome in obese mice by targeting the CREB/CRTC2 transcriptional complex” (Nature Communications, 2022)
Where “and” joins values, the source holds several entries; their conditions need not be identical. Equal values may be shown once.

Test: Glucose, insulin, and pyruvate tolerance tests
Type: in vivo, mouse
Parameters: AUC of IGTT, Total Area / AUC analysis of ITT, Total Area / AUC of ITT, group mean / AUC of PTT, group mean / IGTT, Mean Diff. APC - VEH / IGTT, group mean (Mean 1, APC): unit not given beside the values
Settings: for blood glucose, PTT in DIO, group mean / blood glucose, IGTT, mean / ITT, group mean: N=7; for blood glucose: OGTT in db/db; for IGTT, group mean (Mean 1, APC): n=8
Protocol: After overnight fasting, mice were i.p. injected or treated orally with D-glucose (1–2 g/kg) for glucose-tolerance tests (IGTT or OGTT) or injecting with sodium pyruvate (1–2 g/kg) for pyruvate tolerance tests (PTT). Insulin-tolerance tests (ITT) were performed by i.p. injection of insulin (1 U/kg) 2-h after food removal. […]

[1] = DIO and db/db mice, i.p. 20 mg/kg, 5 weeks

## CC(C)=CCc1cc(C=CC(=O)O)cc(CC=C(C)C)c1O [APC, 3,5-diprenyl-4-hydroxycinnamic acid]
[1]
  capability for gluconeogenesis (PTT): significantly inhibited
  whole-body insulin sensitivity (GTT and ITT): greatly enhanced
DIO mice, 0 mins of PTT, mean of APC group
  blood glucose, PTT in DIO, group mean: 98.23 mg/dL
DIO mice, 0 mins of PTT, single animals, n=7
  blood glucose, PTT in DIO: 79.2 mg/dL and 84.6 mg/dL and 104.4 mg/dL and 95.4 mg/dL and 124.2 mg/dL and 122.4 mg/dL and 77.4 mg/dL
DIO mice, 15 mins of PTT, mean of APC group
  blood glucose, PTT in DIO, group mean: 148.9 mg/dL
DIO mice, 15 mins of PTT, single animals, n=7
  blood glucose, PTT in DIO: 135 mg/dl and 153 mg/dl and 190.8 mg/dl and 156.6 mg/dl (2×) and 127.8 mg/dl and 122.4 mg/dl
DIO mice, 30 mins of PTT, mean of APC group
  blood glucose, PTT in DIO, group mean: 191.6 mg/dL
DIO mice, 30 mins of PTT, single animals, n=7
  blood glucose, PTT in DIO: 160.2 mg/dL and 192.6 mg/dL and 210.6 mg/dL and 185.4 mg/dL and 230.4 mg/dL and 187.2 mg/dL and 174.6 mg/dL
DIO mice, 60 mins of PTT, mean of APC group
  blood glucose, PTT in DIO, group mean: 174.9 mg/dL
DIO mice, 60 mins of PTT, single animals, n=7
  blood glucose, PTT in DIO: 129.6 mg/dL and 163.8 mg/dL and 210.6 mg/dL and 156.6 mg/dL and 248.4 mg/dL and 176.4 mg/dL and 138.6 mg/dL
DIO mice, 120 mins of PTT, mean of APC group
  blood glucose, PTT in DIO, group mean: 133.2 mg/dL
DIO mice, 120 mins of PTT, single animals, n=7
  blood glucose, PTT in DIO: 93.6 mg/dl and 126 mg/dl (2×) and 165.6 mg/dl and 178.2 mg/dl and 120.6 mg/dl and 122.4 mg/dl
DIO mice, Mean of APC, two-way RM ANOVA
  blood glucose, PTT in DIO, mean over all time points: 149.3 mg/dL
DIO mice, mean of APC group, n=7
  AUC of PTT, group mean: 631
DIO mice, single animals, n=7
  Total Area of PTT (AUC analysis of PTT): 511.2 and 614.7 and 747 and 609.3 and 757.8 and 641.7 and 535.5
Figure 8f, IGTT in DIO, 0 mins, group mean, VEH 112.9
  blood glucose, IGTT, mean: 93.09 mg/dL
Figure 8f, IGTT in DIO, 0 mins, individual mice
  blood glucose, IGTT: 109.80 mg/dl (2×) and 84.60 mg/dl (2×) and 72.00 mg/dl and 97.20 mg/dl and 93.60 mg/dl
Figure 8f, IGTT in DIO, 15 mins, group mean, VEH 362.1
  blood glucose, IGTT, mean: 364.4 mg/dL
Figure 8f, IGTT in DIO, 15 mins, individual mice
  blood glucose, IGTT: 243.00 mg/dL and 401.40 mg/dL and 361.80 mg/dL and 469.80 mg/dL and 279.00 mg/dL and 376.20 mg/dL and 419.40 mg/dL
Figure 8f, IGTT in DIO, 30 mins, group mean, VEH 448.5
  blood glucose, IGTT, mean: 358.7 mg/dL
Figure 8f, IGTT in DIO, 30 mins, individual mice
  blood glucose, IGTT: 198.00 mg/dL and 376.20 mg/dL and 453.60 mg/dL and 383.40 mg/dL and 358.20 mg/dL and 468.00 mg/dL and 273.60 mg/dL
Figure 8f, IGTT in DIO, 60 mins, group mean, VEH 351.8
  blood glucose, IGTT, mean: 257.9 mg/dL
Figure 8f, IGTT in DIO, 60 mins, individual mice
  blood glucose, IGTT: 171.00 mg/dL and 248.40 mg/dL and 298.80 mg/dL and 241.20 mg/dL and 307.80 mg/dL and 372.60 mg/dL and 165.60 mg/dL
Figure 8f, IGTT in DIO, 100 mins, group mean, VEH 222.7
  blood glucose, IGTT, mean: 157.1 mg/dL
Figure 8f, IGTT in DIO, 100 mins, individual mice
  blood glucose, IGTT: 140.40 mg/dL and 131.40 mg/dL and 176.40 mg/dL and 138.60 mg/dL and 207.00 mg/dL and 190.80 mg/dL and 115.20 mg/dL
Figure 8f, IGTT in DIO, individual mice
  AUC of IGTT, Total Area: 737.1 and 1134 and 1257 and 1200 and 1097 and 1359 and 958.5
Figure 8g, ITT in DIO, 0 mins, individual mice
  blood glucose, ITT: 163.8 mg/dl (2×) and 151.2 mg/dl and 124.2 mg/dl and 156.6 mg/dl (2×) and 160.2 mg/dl
Figure 8g, ITT in DIO, 15 mins, individual mice
  blood glucose, ITT: 91.8 mg/dL and 75.6 mg/dL and 79.2 mg/dL and 93.6 mg/dL and 97.2 mg/dL and 77.4 mg/dL and 108 mg/dL
Figure 8g, ITT in DIO, 30 mins, individual mice
  blood glucose, ITT: 88.2 mg/dl (2×) and 73.8 mg/dl and 93.6 mg/dl and 82.8 mg/dl and 68.4 mg/dl and 86.4 mg/dl
Figure 8g, ITT in DIO, 60 mins, individual mice
  blood glucose, ITT: 75.6 mg/dL and 88.2 mg/dL and 79.2 mg/dL and 93.6 mg/dL and 81 mg/dL and 61.2 mg/dL and 52.2 mg/dL
Figure 8g, ITT in DIO, 100 mins, individual mice
  blood glucose, ITT: 86.4 mg/dl (2×) and 124.2 mg/dl and 75.6 mg/dl and 88.2 mg/dl (2×) and 50.4 mg/dl
Figure 8g, ITT in DIO, individual mice
  AUC analysis of ITT, Total Area: 380.7 and 389.7 and 337.5 and 396.9 and 383.4 and 333 and 351.9
Figure 9g, Time 0.0 mins, single animals
  blood glucose: 320.4 mg/dL and 340.2 mg/dL and 352.8 mg/dL and 234.0 mg/dL and 396.0 mg/dL
Figure 9g, Time 30.0 mins, single animals
  blood glucose: 345.6 mg/dL and 576.0 mg/dL and 259.2 mg/dL and 268.2 mg/dL and 599.4 mg/dL
Figure 9g, Time 60.0 mins, single animals
  blood glucose: 334.8 mg/dL and 468.0 mg/dL and 158.4 mg/dL and 194.4 mg/dL and 502.2 mg/dL
Figure 9g, Time 90.0 mins, single animals
  blood glucose: 268.2 mg/dL and 486.0 mg/dL and 162.0 mg/dL and 203.4 mg/dL and 419.4 mg/dL
Figure 9g, db/db, group mean, n 5
  AUC of OGTT, mean: 1059
Figure 9g, db/db, single animals
  AUC of OGTT: 974.7 and 1457 and 675 and 681.3 and 1509
Figure 9g, mean over all time points and animals, N 20
  OGTT in db/db, column mean of blood glucose: 344.4 mg/dL
0 min, mean of APC group
  ITT, group mean: 153.8
15 min, mean of APC group
  ITT, group mean: 88.97
30 min, mean of APC group
  ITT, group mean: 83.06
60 min, mean of APC group
  ITT, group mean: 75.86
100 min, mean of APC group
  ITT, group mean: 85.63
db/db mice
  AUC of IGTT in db/db, difference between means (APC - VEH) ± SEM: -383.6 ± 97.97
db/db mice, 0 min
  IGTT, Mean Diff. APC - VEH: -33.3
  IGTT, group mean (Mean 1, APC): 142
db/db mice, 15 min
  IGTT, Mean Diff. APC - VEH: -2.925
  IGTT, group mean (Mean 1, APC): 441.9
db/db mice, 30 min
  IGTT, Mean Diff. APC - VEH: -145.1
  IGTT, group mean (Mean 1, APC): 281
